Assay results: the NIST ThermoML archive (doi:10.1021/je025582+)

Conditions: Gas

FC(C(F)(F)F)C(F)(F)F [1,1,1,2,3,3,3-heptafluoropropane]
Conditions	mass density [kg/m3]
318.15 K, 122.2 kPa	8.07
318.15 K, 167.7 kPa	11.21
318.15 K, 230.1 kPa	15.57
318.15 K, 312 kPa	21.61
318.15 K, 421 kPa	30.01
318.15 K, 561.3 kPa	41.67
318.15 K, 734.2 kPa	57.85
321.15 K, 123.2 kPa	8.06
321.15 K, 169.3 kPa	11.2
321.15 K, 232.2 kPa	15.54
321.15 K, 315.4 kPa	21.58
321.15 K, 425.5 kPa	29.97
321.15 K, 568 kPa	41.61
321.15 K, 744.1 kPa	57.77
324.15 K, 124.4 kPa	8.05
324.15 K, 170.9 kPa	11.18
324.15 K, 234.2 kPa	15.53
324.15 K, 318.6 kPa	21.56
324.15 K, 430.2 kPa	29.93
324.15 K, 574.9 kPa	41.56
324.15 K, 754 kPa	57.71
327.15 K, 125.7 kPa	8.04
327.15 K, 172.6 kPa	11.17
327.15 K, 236.2 kPa	15.51
327.15 K, 321.9 kPa	21.53
327.15 K, 434.8 kPa	29.9
327.15 K, 581.5 kPa	41.52
327.15 K, 763.9 kPa	57.65
327.15 K, 982.1 kPa	80.04
330.15 K, 126.8 kPa	8.04
330.15 K, 132 kPa	8.39
330.15 K, 174.3 kPa	11.16
330.15 K, 181.5 kPa	11.64
330.15 K, 238.5 kPa	15.5
330.15 K, 248.3 kPa	16.17
330.15 K, 325.2 kPa	21.51
330.15 K, 338.6 kPa	22.45
330.15 K, 439.5 kPa	29.87
330.15 K, 457.7 kPa	31.17
330.15 K, 588.3 kPa	41.48
330.15 K, 611.2 kPa	43.28
330.15 K, 774.3 kPa	57.59
330.15 K, 803.6 kPa	60.09
330.15 K, 998.1 kPa	79.97
333.15 K, 128 kPa	8.03
333.15 K, 175.9 kPa	11.15
333.15 K, 240.7 kPa	15.48
333.15 K, 328.6 kPa	21.5
333.15 K, 444.3 kPa	29.85
333.15 K, 595.3 kPa	41.45
333.15 K, 784.6 kPa	57.55
333.15 K, 1013.2 kPa	79.91
336.15 K, 129 kPa	8.03
336.15 K, 177.7 kPa	11.14
336.15 K, 243.4 kPa	15.47
336.15 K, 331.9 kPa	21.49
336.15 K, 449.1 kPa	29.83
336.15 K, 602.5 kPa	41.42
336.15 K, 795.1 kPa	57.52
336.15 K, 1029.1 kPa	79.86
339.15 K, 130.1 kPa	8.02
339.15 K, 179.3 kPa	11.14
339.15 K, 245.7 kPa	15.47
339.15 K, 334.9 kPa	21.48
339.15 K, 454.4 kPa	29.82
339.15 K, 609.6 kPa	41.4
339.15 K, 804.6 kPa	57.49
339.15 K, 1044.6 kPa	79.83
339.15 K, 1310.5 kPa	110.84
342.15 K, 131.3 kPa	8.02
342.15 K, 181.1 kPa	11.14
342.15 K, 248.2 kPa	15.46
342.15 K, 338.6 kPa	21.47
342.15 K, 459.3 kPa	29.81
342.15 K, 616.9 kPa	41.39
342.15 K, 815 kPa	57.47
342.15 K, 1059.6 kPa	79.8
342.15 K, 1333.9 kPa	110.8
345.15 K, 132.5 kPa	8.02
345.15 K, 182.4 kPa	11.13
345.15 K, 250.2 kPa	15.46
345.15 K, 341.9 kPa	21.47
345.15 K, 464 kPa	29.81
345.15 K, 624.2 kPa	41.39
345.15 K, 826.2 kPa	57.46
345.15 K, 1074.6 kPa	79.79
345.15 K, 1358 kPa	110.79
380.15 K, 269.4 kPa	14.93
380.15 K, 369.5 kPa	20.73
380.15 K, 503.4 kPa	28.78
380.15 K, 683 kPa	39.96
380.15 K, 918.3 kPa	55.48
380.15 K, 1215.9 kPa	77.04
380.15 K, 1582.9 kPa	106.97
380.15 K, 2004.6 kPa	148.52
380.15 K, 2446.1 kPa	206.22
380.15 K, 2832.9 kPa	286.34
